US20210095322A1, “HIGH-PURITY STEVIOL GLYCOSIDES” (PureCircle USA Inc., priority 2018, published 2021)

Assays:
[1] = aqueous solution; Ref: Celaya et al (2016); cited from earlier work
[2] = Isosweet determination (2-AFC) vs sucrose in acidified water, sweetness potency; format: in vivo, human; settings: pH = 3.2
Method: As an example, Reb AM was evaluated.

[3] = FEMA GRAS publication; cited from earlier work

C=C1C[C@@]23CC[C@H]4[C@@](C)(CCC[C@@]4(C)C(=O)O[C@@H]4O[C@H](CO)[C@@H](O)[C@H](O)[C@H]4O)[C@@H]2CC[C@]1(O[C@@H]1O[C@H](CO)[C@@H](O)[C@H](O[C@@H]2O[C@H](CO)[C@@H](O)[C@H](O)[C@H]2O)[C@H]1O[C@@H]1O[C@H](CO)[C@@H](O)[C@H](O)[C@H]1O)C3 [Reb A, rebaudioside A]
Solubility [1]: <0.7%
Sweetness Equivalent (ppm) in Water ([2]; 2.5% SE): 94 ppm
Sweetness Potency in Water ([2]; 2.5% SE): 266 x sugar equivalent
Sweetness Equivalent (ppm) in Water ([2]; 5.0% SE): 299 ppm
Sweetness Potency in Water ([2]; 5.0% SE): 167 x sugar equivalent
Sweetness Perception Threshold Concentration [3]: 30 ppm

C=C1C[C@@]23CC[C@H]4[C@@](C)(CCC[C@@]4(C)C(=O)O[C@@H]4O[C@H](CO)[C@@H](O)[C@H](O)[C@H]4O)[C@@H]2CC[C@]1(O[C@@H]1O[C@H](CO)[C@@H](O)[C@H](O)[C@H]1O[C@@H]1O[C@H](CO)[C@@H](O)[C@H](O)[C@H]1O)C3 [Stevioside, stevioside]
Solubility [1]: <0.7%
